Data reported in patent publication US20250333394A1, “Tiparp Inhibitor Compounds” (AbbVie Inc., priority 2024, published 2025).

Columns and labels:
DLD-1 BRCA2 (−/−) cells = assay: CellTiter-Glo DLD-1 BRCA2 (−/−) cell assay for PARP1/2 inhibition; format: cell-based; conditions: Homo sapiens, 144 h, 6 days, read-out: DLD-1 BRCA2 (−/−) CTG EC50
Summary of the method: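 DLD-1 parent (500 cells/well) and DLD-1 BRCA2 (−/−) (1200 cells/well) cells in RPMI 1640 with 10% FBS exposed to compounds at 30 μM to 0.5 nM (3-fold dilutions) for 6 days at 37° C. Viability read by CellTiter-Glo luminescence on day 7.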

NCI-H1373 tumors = assay: NCI-H1373 xenograft tumor model efficacy; format: in vivo, mouse; conditions: PO BID for 14 days, SCID-beige mice
Method: The human xenograft line NCI-H1373 was obtained from ATCC (American Type Culture Collection, Manassas, Virginia, USA). A suspension of 5×10^6 cells in culture medium mixed with Matrigel® (Corning Life Sciences, Lowell, MA, USA; 1:1, volume:volume) was injected subcutaneously in the right hind flank of female SCID-beige mice to generate tumor formation. Treatment started when the size of the flank tumors was approximately 120 mm^3. The TIPARP inhibition activity of Example 1 was evaluated by dosing five separate treatment groups with vehicle and four different doses of Example 1, administered twice a day (BID) for 14 days. Each administration consisted of a 0.2 mL PO dose in a vehicle formulation (10% ethanol, 30% PEG300, and 60% PHOSAL® 50).

PARP1 GST = PARP1 GST (Homo sapiens (Human), UniProt P09874); assay: TR-FRET binding assay, PARP1; conditions: Probe 2, 2 hours incubation
Chain of PARP1 GST (P09874 whole entry): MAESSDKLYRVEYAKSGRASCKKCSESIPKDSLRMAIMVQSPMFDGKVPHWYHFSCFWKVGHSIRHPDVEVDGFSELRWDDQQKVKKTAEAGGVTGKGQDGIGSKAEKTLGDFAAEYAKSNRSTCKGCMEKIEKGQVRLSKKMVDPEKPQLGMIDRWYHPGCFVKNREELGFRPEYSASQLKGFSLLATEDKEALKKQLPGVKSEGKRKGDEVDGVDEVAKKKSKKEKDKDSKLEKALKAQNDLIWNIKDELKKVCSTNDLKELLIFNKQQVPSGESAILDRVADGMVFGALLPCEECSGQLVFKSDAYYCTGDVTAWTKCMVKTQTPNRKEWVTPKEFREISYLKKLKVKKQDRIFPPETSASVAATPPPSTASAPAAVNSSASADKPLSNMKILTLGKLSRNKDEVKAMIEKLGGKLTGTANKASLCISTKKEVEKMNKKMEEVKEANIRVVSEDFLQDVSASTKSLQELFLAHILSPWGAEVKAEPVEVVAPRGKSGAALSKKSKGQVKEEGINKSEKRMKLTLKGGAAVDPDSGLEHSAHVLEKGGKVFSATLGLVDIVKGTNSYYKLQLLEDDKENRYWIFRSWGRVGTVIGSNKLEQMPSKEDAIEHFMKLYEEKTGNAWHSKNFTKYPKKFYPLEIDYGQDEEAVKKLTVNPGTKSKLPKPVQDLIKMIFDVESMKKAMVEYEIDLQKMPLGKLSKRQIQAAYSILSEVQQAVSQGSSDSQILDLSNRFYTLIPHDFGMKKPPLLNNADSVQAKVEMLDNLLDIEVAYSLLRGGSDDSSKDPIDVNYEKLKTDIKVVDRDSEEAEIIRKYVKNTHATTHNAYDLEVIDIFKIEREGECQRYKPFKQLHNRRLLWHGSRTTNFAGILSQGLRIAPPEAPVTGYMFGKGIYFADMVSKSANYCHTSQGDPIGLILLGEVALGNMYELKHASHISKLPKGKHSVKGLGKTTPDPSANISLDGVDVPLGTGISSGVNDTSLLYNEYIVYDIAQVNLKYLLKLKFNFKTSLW
Summary of the method: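 Serially diluted compounds, final 30 μM down to 0.5 nM, incubated 2 h at ambient temperature with GST-tagged protein/probe mix plus 1 nM Tb-anti-GST antibody. Buffer: 50 mM Tris-HCl pH 8.0, 5 mM MgCl2, 5 μM ZnCl2, 1 mM DTT, 0.15% BSA, 0.01% Triton X-100. Binding read as TR-FRET ratio.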

Structure (SMILES): C[C@@H]1CN(c2ncc(C(F)(F)F)cn2)CCN1C(=O)[C@H]1C[C@@H](c2c[nH]c(=O)c(C(F)(F)F)c2)C1 [Example 1, 5-[(1S,3s)-3-{(2R)-2-methyl-4-[5-(trifluoromethyl)pyrimidin-2-yl]piperazine-1-carbonyl}cyclobutyl]-3-(trifluoromethyl)pyridin-2(1H)-one]
- EC50 (DLD-1 BRCA2 (−/−) cells): 18.5 µM
- TGIMax (NCI-H1373 tumors; Dose A): 26%
- TGIMax (NCI-H1373 tumors; Dose B): 46%
- TGIMax (NCI-H1373 tumors; Dose C): 73%
- TGIMax (NCI-H1373 tumors; Dose D): 92%
- IC50 (PARP1 GST): 2.74 µM
